According to patent publication US9079901B2, “Fused heterocyclic compounds as ion channel modulators” (Gilead Sciences, Inc., priority 2010, dated 2015):

Target: wild-type human cardiac sodium channel, hNav1.5 (late sodium current) in HEK293 cells (Homo sapiens, UniProt Q14524)
Assay: Late INa screening assay (automated whole-cell patch clamp, PatchXpress)
Type: cell-based
Settings: late INa generated with 10 μM Tefluthrin (or 50 nM ATX II), HEK293 hNav1.5; for inhibition at 1 µM: HEK293, compound at 1 μM, read-out: Late INa 1 μM (percent block of late INa); for Late INa 1 μM (percent block of late INa): compound at 1 μM
How it was run: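 hNav1.5-expressing HEK293 cells (no β subunits) were recorded by automated whole-cell patch clamp at 24–27 °C with CsF-based internal solution. Late current was induced by 10 μM tefluthrin (or 50 nM ATX II) and evoked by 250 ms steps from −120 to −20 mV at 0.1 Hz. Compounds, typically 10 μM, were applied in three additions over 7–8 min; mean current at 225–250 ms, normalised to 0Na baseline, gave percent block.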

Sequence of wild-type human cardiac sodium channel, hNav1.5 (late sodium current) in HEK293 cells (Q14524 whole entry): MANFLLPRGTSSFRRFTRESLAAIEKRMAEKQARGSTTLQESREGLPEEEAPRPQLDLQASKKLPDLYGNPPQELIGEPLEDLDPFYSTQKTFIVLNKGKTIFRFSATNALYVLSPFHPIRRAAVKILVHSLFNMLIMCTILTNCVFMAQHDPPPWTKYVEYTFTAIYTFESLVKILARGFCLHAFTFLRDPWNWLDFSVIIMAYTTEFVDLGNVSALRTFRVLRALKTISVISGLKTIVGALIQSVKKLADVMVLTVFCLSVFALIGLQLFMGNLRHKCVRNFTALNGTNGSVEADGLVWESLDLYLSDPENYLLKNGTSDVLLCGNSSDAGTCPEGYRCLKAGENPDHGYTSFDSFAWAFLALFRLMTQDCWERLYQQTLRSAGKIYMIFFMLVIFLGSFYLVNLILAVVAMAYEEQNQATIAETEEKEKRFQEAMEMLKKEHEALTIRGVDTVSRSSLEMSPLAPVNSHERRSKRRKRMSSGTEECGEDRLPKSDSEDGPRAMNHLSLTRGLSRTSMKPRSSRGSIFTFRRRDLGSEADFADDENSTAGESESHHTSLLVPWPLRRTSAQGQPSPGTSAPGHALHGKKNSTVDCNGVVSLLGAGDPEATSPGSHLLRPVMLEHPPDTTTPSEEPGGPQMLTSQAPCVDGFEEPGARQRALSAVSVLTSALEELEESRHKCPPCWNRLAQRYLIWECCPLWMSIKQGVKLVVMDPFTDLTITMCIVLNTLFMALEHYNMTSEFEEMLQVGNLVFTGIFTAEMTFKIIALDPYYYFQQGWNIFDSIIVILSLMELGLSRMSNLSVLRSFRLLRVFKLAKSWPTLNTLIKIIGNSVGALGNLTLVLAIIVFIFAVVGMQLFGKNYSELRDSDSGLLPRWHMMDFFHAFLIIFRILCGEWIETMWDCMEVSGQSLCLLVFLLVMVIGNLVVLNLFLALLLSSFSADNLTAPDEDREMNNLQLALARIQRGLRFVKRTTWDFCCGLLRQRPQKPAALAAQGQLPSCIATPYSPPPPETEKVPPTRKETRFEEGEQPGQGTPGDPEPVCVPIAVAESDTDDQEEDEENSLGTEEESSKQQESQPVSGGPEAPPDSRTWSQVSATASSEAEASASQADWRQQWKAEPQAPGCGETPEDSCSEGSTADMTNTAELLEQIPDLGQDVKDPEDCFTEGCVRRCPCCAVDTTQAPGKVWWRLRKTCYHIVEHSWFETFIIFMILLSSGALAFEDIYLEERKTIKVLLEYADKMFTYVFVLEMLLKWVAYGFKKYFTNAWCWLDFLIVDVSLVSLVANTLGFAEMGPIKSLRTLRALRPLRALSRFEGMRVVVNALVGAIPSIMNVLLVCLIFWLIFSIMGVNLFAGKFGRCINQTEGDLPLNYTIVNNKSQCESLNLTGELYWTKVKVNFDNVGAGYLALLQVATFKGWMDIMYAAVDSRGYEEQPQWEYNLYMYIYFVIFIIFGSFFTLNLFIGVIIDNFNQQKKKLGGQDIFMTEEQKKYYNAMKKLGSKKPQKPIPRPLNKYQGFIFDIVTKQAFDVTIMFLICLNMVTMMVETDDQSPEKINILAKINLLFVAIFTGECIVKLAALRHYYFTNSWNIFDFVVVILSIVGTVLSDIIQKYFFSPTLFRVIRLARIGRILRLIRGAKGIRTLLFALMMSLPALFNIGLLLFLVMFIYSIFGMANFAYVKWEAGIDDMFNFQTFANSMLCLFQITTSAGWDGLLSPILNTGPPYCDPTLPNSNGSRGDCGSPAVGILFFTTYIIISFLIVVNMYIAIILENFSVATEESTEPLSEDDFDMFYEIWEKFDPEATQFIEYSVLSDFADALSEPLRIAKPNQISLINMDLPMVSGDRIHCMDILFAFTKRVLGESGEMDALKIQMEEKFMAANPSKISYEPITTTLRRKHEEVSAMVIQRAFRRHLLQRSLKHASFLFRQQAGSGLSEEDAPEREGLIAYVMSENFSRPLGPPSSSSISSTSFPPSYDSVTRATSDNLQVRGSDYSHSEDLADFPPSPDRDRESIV

SMILES	inhibition at 1 µM [%]	Late INa 1 μM (percent block of late INa) [%]
O=c1n(CCN2CC[C@@H](Oc3ccc(F)cc3)C2)nc2ccc(-c3ccc(OC(F)(F)F)cc3)cn12 [compound 186, (R)-2-(2-(3-(4-fluorophenoxy)pyrrolidin-1-yl)ethyl)-6-(4-(trifluoromethoxy)phenyl)-[1,2,4]triazolo[4,3-a]pyridin-3(2H)-one]	37.3	–
Cc1noc(Cn2nc3ccc(-c4ccc(Cl)c(F)c4)cn3c2=O)n1 [compound 161, 6-(4-chloro-3-fluorophenyl)-2-((3-methyl-1,2,4-oxadiazol-5-yl)methyl)-[1,2,4]triazolo[4,3-a]pyridin-3(2H)-one]	13.9	–
O=c1n(CCOc2nccc(OCCO)n2)nc2ccc(-c3ccc(OC(F)(F)F)cc3)cn12 [compound 156, 2-(2-(4-(2-hydroxyethoxy)pyrimidin-2-yloxy)ethyl)-6-(4-(trifluoromethoxy)phenyl)-[1,2,4]triazolo[4,3-a]pyridin-3(2H)-one]	6.62	–
O=c1n(CCOc2ccc(F)cc2)nc2ccc(-c3ccc(OC(F)(F)F)cc3)cn12 [compound 55, 2-(2-(4-fluorophenoxy)ethyl)-6-(4-(trifluoromethoxy)phenyl)-[1,2,4]triazolo[4,3-a]pyridin-3(2H)-one]	24.3	–
Cc1noc(Cn2nc3ccc(-c4ccc(Cl)c(Cl)c4)cn3c2=O)n1 [compound 134, 6-(3,4-dichlorophenyl)-2-((3-methyl-1,2,4-oxadiazol-5-yl)methyl)-[1,2,4]triazolo[4,3-a]pyridin-3(2H)-one]	15.5	–
O=c1n(CCc2ncccc2Br)nc2ccc(-c3ccc(OC(F)(F)F)cc3)cn12 [compound 56, 2-(2-(3-bromopyridin-2-yl)ethyl)-6-(4-(trifluoromethoxy)phenyl)-[1,2,4]triazolo[4,3-a]pyridin-3(2H)-one]	39.8	–
O=c1n(CCOc2ncc(C(F)(F)F)cn2)nc2ccc(-c3ccc(OC(F)(F)F)cc3)cn12 [compound 180, 6-(4-(trifluoromethoxy)phenyl)-2-(2-(5-(trifluoromethyl)pyrimidin-2-yloxy)ethyl)-[1,2,4]triazolo[4,3-a]pyridin-3(2H)-one]	22.6	–
O=c1n(CCc2cccnc2)nc2ccc(-c3ccc(OC(F)(F)F)cc3)cn12 [compound 73, 2-(2-(pyridin-3-yl)ethyl)-6-(4-(trifluoromethoxy)phenyl)-[1,2,4]triazolo[4,3-a]pyridin-3(2H)-one]	10.4	–
O=c1n(Cc2ncco2)nc2ccc(-c3ccc(OC(F)(F)F)cc3)cn12 [compound 19, 2-(oxazol-2-ylmethyl)-6-(4-(trifluoromethoxy)phenyl)-[1,2,4]triazolo[4,3-a]pyridin-3(2H)-one]	18.1	–
O=c1n(CCCOc2cccnn2)nc2ccc(-c3ccc(OC(F)(F)F)cc3)cn12 [compound 79, 2-(3-(pyridazin-3-yloxy)propyl)-6-(4-(trifluoromethoxy)phenyl)-[1,2,4]triazolo[4,3-a]pyridin-3(2H)-one]	11.7	–
N#Cc1ccccc1OCC(O)Cn1nc2ccc(-c3ccc(OC(F)(F)F)cc3)cn2c1=O (stereo not drawn) [compound 101, 2-(2-hydroxy-3-(3-oxo-6-(4-(trifluoromethoxy)phenyl)-[1,2,4]triazolo[4,3-a]pyridin-2(3H)-yl)propoxy)benzonitrile]	11.7	–
O=c1[nH]nc2ccc(-c3ccc(C(F)(F)F)cc3)cn12 [compound 171, 6-(4-(trifluoromethyl)phenyl)-[1,2,4]triazolo[4,3-a]pyridin-3(2H)-one]	19.6	–
Cc1cccc(CCn2nc3ccc(-c4ccc(OC(F)(F)F)cc4)cn3c2=O)n1 [compound 48, 2-(2-(6-methylpyridin-2-yl)ethyl)-6-(4-(trifluoromethoxy)phenyl)-[1,2,4]triazolo[4,3-a]pyridin-3(2H)-one]	34.9	–
COc1ccc(Br)c(CCn2nc3ccc(-c4ccc(OC(F)(F)F)cc4)cn3c2=O)n1 [compound 118, 2-(2-(3-bromo-6-methoxypyridin-2-yl)ethyl)-6-(4-(trifluoromethoxy)phenyl)-[1,2,4]triazolo[4,3-a]pyridin-3(2H)-one]	47.9	–
COc1ccccc1OCCn1nc2ccc(-c3ccc(OC(F)(F)F)cc3)cn2c1=O [compound 69, 2-(2-(2-methoxyphenoxy)ethyl)-6-(4-(trifluoromethoxy)phenyl)-[1,2,4]triazolo[4,3-a]pyridin-3(2H)-one]	32.5	–
C[Si](C)(C)c1ccc(-c2ccc3nn(CCOc4ncccn4)c(=O)n3c2)cc1 [compound 123, 2-(2-(pyrimidin-2-yloxy)ethyl)-6-(4-(trimethylsilyl)phenyl)-[1,2,4]triazolo[4,3-a]pyridin-3(2H)-one]	38	–
CC1(C)OC[C@H](c2nc(Cn3nc4ccc(-c5ccc(OC(F)(F)F)cc5)cn4c3=O)no2)O1 [compound 158, (R)-2-((5-(2,2-dimethyl-1,3-dioxolan-4-yl)-1,2,4-oxadiazol-3-yl)methyl)-6-(4-(trifluoromethoxy)phenyl)-[1,2,4]triazolo[4,3-a]pyridin-3(2H)-one]	25.3	–

SMILES	inhibition at 1 µM [%]	Late INa 1 μM (percent block of late INa) [%]
O=c1n(CC(O)COc2ccc(Cl)cc2)nc2ccc(-c3ccc(OC(F)(F)F)cc3)cn12 (stereo not drawn) [compound 38, 2-(3-(4-chlorophenoxy)-2-hydroxypropyl)-6-(4-(trifluoromethoxy)phenyl)-[1,2,4]triazolo[4,3-a]pyridin-3(2H)-one]	10.8	–
O=c1n(Cc2nc(C3CC3)co2)nc2ccc(-c3ccc(C(F)(F)F)cc3)cn12 [compound 194, 2-((4-cyclopropyloxazol-2-yl)methyl)-6-(4-(trifluoromethyl)phenyl)-[1,2,4]triazolo[4,3-a]pyridin-3(2H)-one]	21.6	–
O=c1n(CCOc2ccccc2)nc2ccc(-c3ccc(OC(F)(F)F)cc3)cn12 [compound 28, 2-(2-phenoxyethyl)-6-(4-(trifluoromethoxy)phenyl)-[1,2,4]triazolo[4,3-a]pyridin-3(2H)-one]	46.3	–
Cn1nc(C2CC2)cc1Cn1nc2ccc(-c3ccc(OC(F)(F)F)cc3)cn2c1=O [compound 26, 2-((3-cyclopropyl-1-methyl-1H-pyrazol-5-yl)methyl)-6-(4-(trifluoromethoxy)phenyl)-[1,2,4]triazolo[4,3-a]pyridin-3(2H)-one]	19.3	–
N#CCOc1ccnc(OCCn2nc3ccc(-c4ccc(OC(F)(F)F)cc4)cn3c2=O)n1 [compound 160]	–	24.6907
CCc1noc(Cn2nc3ccc(-c4ccc(OC(F)(F)F)cc4)cn3c2=O)n1 [compound 15, 2-((3-ethyl-1,2,4-oxadiazol-5-yl)methyl)-6-(4-(trifluoromethoxy)phenyl)-[1,2,4]triazolo[4,3-a]pyridin-3(2H)-one]	–	13.5253
O=c1n(CCc2ncccc2C2CC2)nc2ccc(-c3ccc(OC(F)(F)F)cc3)cn12 [compound 60, 2-(2-(3-cyclopropylpyridin-2-yl)ethyl)-6-(4-(trifluoromethoxy)phenyl)-[1,2,4]triazolo[4,3-a]pyridin-3(2H)-one]	34.1	–
O=C1C(Oc2ccccc2)CCN1CCn1nc2ccc(-c3ccc(OC(F)(F)F)cc3)cn2c1=O (stereo not drawn) [compound 112, 2-(2-(2-oxo-3-phenoxypyrrolidin-1-yl)ethyl)-6-(4-(trifluoromethoxy)phenyl)-[1,2,4]triazolo[4,3-a]pyridin-3(2H)-one]	11.1	–
Cc1nc(Cn2nc3ccc(-c4ccc(Oc5ccc(Cl)cc5)cc4)cn3c2=O)no1 [compound 32, 6-(4-(4-chlorophenoxy)phenyl)-2-((5-methyl-1,2,4-oxadiazol-3-yl)methyl)-[1,2,4]triazolo[4,3-a]pyridin-3(2H)-one]	68.5	–
O=c1n(Cc2ccc3ccccc3n2)nc2ccc(-c3ccc(OC(F)(F)F)cc3)cn12 [compound 13, 2-(quinolin-2-ylmethyl)-6-(4-(trifluoromethoxy)phenyl)-[1,2,4]triazolo[4,3-a]pyridin-3(2H)-one]	24.6	–
Cc1nc(-c2cccc(Cn3nc4ccc(-c5ccc(OC(F)(F)F)cc5)cn4c3=O)c2)no1 [compound 8, 2-(3-(5-methyl-1,2,4-oxadiazol-3-yl)benzyl)-6-(4-(trifluoromethoxy)phenyl)-[1,2,4]triazolo[4,3-a]pyridin-3(2H)-one]	16.3	–
O=c1n(CCCc2ccc(F)c(-c3ncco3)c2)nc2ccc(-c3ccc(OC(F)(F)F)cc3)cn12 [compound 119, 2-(3-(4-fluoro-3-(oxazol-2-yl)phenyl)propyl)-6-(4-(trifluoromethoxy)phenyl)-[1,2,4]triazolo[4,3-a]pyridin-3(2H)-one]	22	–
COc1cnc(OCCn2nc3ccc(-c4ccc(OC(F)(F)F)cc4)cn3c2=O)nc1 [compound 116, 2-(2-(5-methoxypyrimidin-2-yloxy)ethyl)-6-(4-(trifluoromethoxy)phenyl)-[1,2,4]triazolo[4,3-a]pyridin-3(2H)-one]	31.3	–
O=c1n(-c2ccccn2)nc2ccc(-c3ccc(OC(F)(F)F)cc3)cn12 [compound 34, 2-(pyridin-2-yl)-6-(4-(trifluoromethoxy)phenyl)-[1,2,4]triazolo[4,3-a]pyridin-3(2H)-one]	26	–
O=c1n(Cc2nnc(C3CC3)o2)nc2ccc(-c3ccc(Oc4ccc(F)cc4)cc3)cn12 [compound 182, 2-((5-cyclopropyl-1,3,4-oxadiazol-2-yl)methyl)-6-(4-(4-fluorophenoxy)phenyl)-[1,2,4]triazolo[4,3-a]pyridin-3(2H)-one]	45.9	–
O=c1n(Cc2nc3ccccc3s2)nc2ccc(-c3ccc(OC(F)(F)F)cc3)cn12 [compound 20, 2-(benzo[d]thiazol-2-ylmethyl)-6-(4-(trifluoromethoxy)phenyl)-[1,2,4]triazolo[4,3-a]pyridin-3(2H)-one]	17.4	–
